Reference: patent publication US6376169B1, “Method for diagnosing a vascular condition” (Queens University at Kingston, priority 1998, dated 2002)
“Also recorded” adds a separate entry of the source.

Key:
uPAR [1] = test: Binding of [125I]-prourokinase to HTR-8/SVneo cells (uPAR expression); format: cell-based, human; conditions: for Kd: Kd of [125I]-prourokinase on cells cultured with compound, read-out: Kd (nM) ± SEM; for increase in the expression of uPAR: flow cytometric and radioligand binding studies; for Bmax (sites/cell) ± SEM: [125I]-prourokinase binding to cells cultured with compound
Description: Determination of uPAR expression by urokinase binding analysis. Measurement of uPAR expression by ligand binding analysis was performed using [^125I]-prourokinase as the ligand, as described (Zini J M, et al., Blood 79:2917 (1992)). Prourokinase was radiolabeled with ^125I, using Iodobeads, to a specific radioactivity of at least 10^6 cpm/μg. Cells were then chilled to 4° C., washed with cold PBS containing 1% BSA, and incubated for 2 h with increasing concentrations of[^125I]-prourokinase in the absence (to determine total binding) or presence (to determine non-specific binding) of a 100-fold molar excess of unlabeled prourokinase. Specific binding was defined as the difference between total and non-specific binding, and analyzed by non-linear curve fitting methods (least squares method) using the Kaliedograph software program (Synergy Software, Reading, Pa.).

uPAR [2] = test: uPAR expression by flow cytometry (mAb 3937) on HTR-8/SVneo cells; format: cell-based, human; conditions: for effect on the inhibition by carbon monoxide of hypoxia-induced uPAR expression: compound in the medium, hypoxia + CO, two independent experiments
Description: To determine whether hypoxia regulates the expression of certain genes (e.g., PAI-1, uPAR, RTP/Drg1) via an iron-containing heme protein, cells were cultured for up to 72 h at 20% oxygen in the presence or absence of either 100 μM cobalt chloride, or 30 mM sodium 4,5-dihydroxybenzene-1,3-disulfonate (Tiron), or 100 μM desferrioxamine mesylate (DFO) (Sigma Chemical CO., St. Louis, Mo.). Further confirmation of the role of a heme protein in hypoxic responses can be achieved by culturing cells under hypoxia in the presence of carbon monoxide, which maintains the heme protein in the oxy state and thereby blocks heme protein-mediated hypoxic responses. Thus, cells were also cultured for 24 h at 37° C. under hypoxic conditions in the presence of 30% carbon monoxide.
Determination of uPAR expression by flow cytometry. For flow cytometry, cells were released from flasks by incubation in cold PBS containing 5 mM EDTA. One million cells were then incubated for 1 h, at 4° C., with either 10 μg/ml of mAb 3937, or control mouse IgG2a, used at the same concentration. Bound antibody was detected using FITC-conjugated goat anti-mouse immunoglobulin. Cells were then fixed with 2% paraformaldehyde in PBS prior to analysis using a Coulter Elite Flow Cytometer.

HTR-8/SVneo cells = test: In vitro invasion of HTR-8/SVneo cells through Matrigel; format: cell-based, human; conditions: for increase in invasion: 20% oxygen, 100 μM cobalt chloride or 30 mM Tiron; for Invasion Index (%) ± SE: standard = 100
Description: In vitro invasion assay. An assay which employs reconstituted basement membrane (Matrigel; Collaborative Biomedical Products, Bedford, Mass.) as the substrate for invasion was used to determine the effect of hypoxia on the invasiveness of tumor cells. Costar Transwell inserts (6.5 mm diameter polycarbonate membrane, 8 μm pore; Corning Costar Corp., Cambridge, Mass.) were coated with 100 μl of a 1 mg/ml solution of Matrigel diluted in cold serum-free culture medium, placed in the wells of a 24-well tissue culture plate and allowed to air-dry for 12 h in a laminar flow cabinet. After reconstituting the Matrigel by incubating for 1 h with 100 μl of serum-free medium, 5.0×10^4 cells in 100 μl aliquots of serum-containing medium were added to the Transwells. […] Cells which invaded through the Matrigel and the pores of the underlying membrane were fixed for 10 min in Carnoy's fixative (25% acetic acid, 75% methanol) and stained for 3 h in 1% toluidine blue, 1% sodium borate. Following several washes in tap water, the membranes were removed with a small scalpel blade, placed on a microscope slide and coverslipped. The invasion index' was then determined by counting, under a microscope, the total number of stained cells in the underside of the polycarbonate membranes.
Alternatively, cells (e.g., HTR-8/SVneo, MDA-MB-231) were labeled by incubation for 24 h in the presence of 10 μCi/ml [^3H]-thymidine. The cells were then harvested, adjusted to a concentration of 5.0×10^5/ml, and 100 μl aliquots added in triplicate to the upper wells of the invasion chambers. After a 24-h incubation, cells in the upper and lower compartments of the chambers were harvested. The invasion index, reflecting the percentage of added cells which had invaded the Matrigel was determined by measurement of the radioactivity in the upper and lower compartments, as well as in the membrane.

cell-associated uPA = test: Zymography of cell-associated plasminogen activators in MDA-MB-231 cell extracts; format: cell-based, human
Description: To assess the levels of plasminogen activators associated with cells cultured for 24 h under 20% and 1% O2, extracts were prepared by disrupting trypsinized cell pellets with 2% SDS in Tris-buffered saline (TBS; 10 mM Tris, 0.15 M NaCl, pH 7.5) using a Polytron homogenizer (Brinkmann Instruments, Rexdale, ON, Canada). The homogenates were centrifuged at 15,000 g for 15 min to remove insoluble materials and 100 μg of extracted protein were analyzed by casein-plasminogen gel zymography as described above.

MDA-MB-231 cells = test: In vitro invasion of MDA-MB-231 cells through Matrigel; format: cell-based, human; conditions: 1% O2 + 30% CO
Description: In vitro invasion assay. An assay which employs reconstituted basement membrane (Matrigel; Collaborative Biomedical Products, Bedford, Mass.) as the substrate for invasion was used to determine the effect of hypoxia on the invasiveness of tumor cells. Costar Transwell inserts (6.5 mm diameter polycarbonate membrane, 8 μm pore; Corning Costar Corp., Cambridge, Mass.) were coated with 100 μl of a 1 mg/ml solution of Matrigel diluted in cold serum-free culture medium, placed in the wells of a 24-well tissue culture plate and allowed to air-dry for 12 h in a laminar flow cabinet. After reconstituting the Matrigel by incubating for 1 h with 100 μl of serum-free medium, 5.0×10^4 cells in 100 μl aliquots of serum-containing medium were added to the Transwells. Following a 24-h incubation under either 20% or 1% O2 in the absence or presence of 10 μg/ml blocking anti-uPAR antibody (3936), or under 1% O2+30% CO (to assess the role of a heme protein on invasion), cells on the surface of the Matrigel-coated polycarbonate membrane (non-invading cells) were removed by scraping with a cotton swab. […] The invasion index' was then determined by counting, under a microscope, the total number of stained cells in the underside of the polycarbonate membranes.

uPAR [3] = test: uPAR protein and mRNA in cancer cells (Example 1); format: cell-based; conditions: 24 hours, standard conditions; 100 μM cobalt chloride; Tiron

Compound | Kd (uPAR [1]) | increase in the expression of uPAR (uPAR [1]; Tiron) | Bmax (sites/cell) ± SEM (uPAR [1]) | effect on the inhibition by carbon monoxide of hypoxia-induced uPAR expression (uPAR [2]) | increase in invasion (HTR-8/SVneo cells) | Invasion Index (%) ± SE (HTR-8/SVneo cells; Standard (20% O2) + compound) | effect on hypoxic increase in cell-associated uPA (cell-associated uPA; 1% O2 + 30% CO, listed as CO) | inhibition of hypoxia-induced expression of uPAR (uPAR [2]; 1% O2 + 20% carbon monoxide, 24 h, flow cytometry) | inhibition of hypoxia-stimulated invasion (HTR-8/SVneo cells; 1% oxygen + 20% carbon monoxide) | Invasion Index (%) ± SE (HTR-8/SVneo cells; Hypoxia (1% O2) + 20% CO) | effect on hypoxia-mediated increase in invasiveness (MDA-MB-231 cells) | uPAR protein and mRNA levels (uPAR [3]) | increase in the expression of uPAR (uPAR [1]; cobalt chloride) | cell-associated uPA levels (cell-associated uPA; culture with cobalt chloride)
O=S(=O)([O-])c1cc(O)c(O)c(S(=O)(=O)[O-])c1.[Na+].[Na+] [Tiron, sodium 4,5-dihydroxybenzene-1,3-disulfonate] | 8.08 ± 1.11 nM | 3 fold | 623,213 ± 102,360 sites/cell | completely prevented | 29.3±12.7% | 129.3 ± 12.7% |  |  |  |  |  |  |  | 
[C-]#[O+] [carbon monoxide] |  |  |  |  |  |  | abrogated the hypoxic increase in cell-associated uPA; also recorded: prevented the effect of hypoxia on cell-associated uPA increases | 56% | 87% | 104.0 ± 8.5% | completely abrogated |  |  | 
[Cl][Co][Cl] [cobalt chloride] | 3.58 ± 0.69 nM |  | 285,711 ± 38,324 sites/cell | completely prevented | 24.6±8.4% | 124.6 ± 8.4% |  |  |  |  |  | elevated uPAR protein and mRNA levels | 28% | increased cell-associated uPA
